Assay results published in patent US20070021430A1, “Novel crystalline form of a phosphoric acid salt of a dipeptidyl peptidase-iv inhibitor” (priority 2003, published 2007).

Tests used:
solubility in water = format: physicochemical
[1] = solid-state stability / conversion of crystal form; format: physicochemical
Procedure: Form IV was prepared by heating the above monohydrate at 120° C. for about 2 h or by heating the monohydrate above 58° C. for about 8 h. Form IV is metastable and converts into the crystalline monohydrate slowly under ambient conditions and rapidly under high relative humidity (98%) at room temperature. Form IV can also be converted to anhydrate Form I in about 1 h at a temperature above 140° C.

For `N[C@@H](CC(=O)N1CCn2c(nnc2C(F)(F)F)C1)Cc1cc(F)c(F)cc1F` [Form IV, (2R)-4-oxo-4-[3-(trifluoromethyl)-5,6-dihydro[1,2,4]triazolo[4,3-a]pyrazin-7(8H)-yl]-1-(2,4,5-trifluorophenyl)butan-2-amine dihydrogenphosphate anhydrate Form IV], the solubility in water (solubility in water) was “high”, the “conversion into the crystalline monohydrate” value ([1]; ambient conditions) was “slowly” and the “conversion into the crystalline monohydrate” value ([1]; high relative humidity (98%) at room temperature) was “rapidly”. For the same compound, the “physical stability of the crystal form” value ([1]; solid state) was “metastable” and the “time for conversion to anhydrate Form I” value ([1]; temperature above 140° C.) was “about 1 h”.
